The target in assay [1] is T1, Mcl-1 (Homo sapiens (Human), UniProt Q07820). Nature of the assay: Fluorescence polarization competition assay (FPCA), Mcl-1 / FITC-Bak BH3 peptide. It is filed as binding. The settings on record: for Ki: read-out: Mcl-1 Ki; for Mcl-1 Exp ΔG: ΔG=−RTlnKi from experimental Ki. The method in brief:
(§1)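 Purified Mcl-1 (affinity tag cleaved, size-exclusion polished) competed against FITC-labeled Bak-BH3 peptide, read by fluorescence polarization. IC50 from Hill-equation fit; Ki derived from IC50 by the Nikolovska-Coleska equation.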
For orientation: In fluorescence polarisation assays a small probe gives low polarisation when free and higher when bound to something large.

Assay [2] deals with HL-60 cell line. Kind of assay: Cell viability of HL-60 cell line after treating with inhibitors for 24 hrs. It is filed as cell-based, human. An excerpt:
The moderate cell grow inhibition ability for the two carboxylic acid ester prodrugs 20 and 21 could be attributed to the enzymatic hydrolysis that generated a free acid molecule (13ag) to function as an Mcl-1 inhibitor in the cells.

In assay [3] the target is T1, Mcl-1. Nature of the assay: 2D 1H-15N HSQC NMR with 15N-labeled Mcl-1. The settings on record: 131 μM 15N-Mcl-1, 182 μM compound. It is filed as binding. The procedure:
NMR spectra was collected at 25° C. with a Bruker AVANCE 800 NMR spectrometer (800.27 MHz for protons) equipped with pulsed-field gradients, four frequency channels, and triple resonance, z-axis gradient cryogenic probes. A one-second relaxation delay was used, and quadrature detection in the indirect dimensions was obtained with states-TPPI phase cycling; initial delays in the indirect dimensions were set to give zero- and first-order phase corrections of 90° and −180°, respectively. Data were processed using the processing program nmrPipe on Linux workstations. All proton chemical shifts are reported with respect to the H2O or HDO signal, taken to be 4.658 ppm relative to external TSP (0.0 ppm) at 37° C. The ^15N chemical shifts were indirectly referenced using the zero-point frequency at 37° C. of 0.10132905 for ^15N—^1H, as previously described.
All compounds used for NMR were initially suspended in 100% d6-DMSO. The NMR samples contained 131 μM ^15N-labeled Mcl-1, 182 μM compound, 20 mM HEPES, pH 6.8, 50 mM NaCl, 3 mM DTT, 20% D2O, and 5% D6-DMSO.

In assay [4] the target is Bcl-xL (Homo sapiens (Human), UniProt Q07817). Nature of the assay: Fluorescence polarization competition assay, Bcl-xL. It is filed as binding. The following applies: for Ki: Ki from IC50 by Nikolovska-Coleska equation, NA = no activity, read-out: Bcl-xL Ki; for Bcl-xL Exp ΔG: ΔG from experimental Ki. As for the experimental part:
Fluorescence polarization experiments were conducted using a BMG PHERAstar FS multimode microplate reader equipped with two PMTs for simultaneous measurements of the perpendicular and parallel fluorescence emission. The assays were performed in black polypropylene 384-well microplate (Costar) with a final volume of 20 microliter. […] Regression analysis was carried out using Origin (OriginLab, Northampton, Mass.) to fit the data to the Hill equation (1) to determine the initial binding affinity (KD) and the IC50 in the FPCA. For the fluorescence polarization competition titrations, an equation derived by Nikolovska-Coleska et al. was used to calculate the Ki from the IC50 data.

The subject of assay [5] is A375 melanoma cells. Nature of the assay: Cell proliferation / viability, CellTiter-Blue assay, A375. It is filed as cell-based, human. The settings on record: for IC50: cell titer blue assay, read-out: IC50 inhibition of cell proliferation, A375. As for the experimental part: (§2) Without being limited to any one theory, the poor efficacy in cells may be attributed to the charged carboxylic acid of 3bl.
The moderate cellular activity of ±-2 may, for instance, be due to limited cell penetration owing to the charged carboxylic acid. Thus, the acetoxymethyl ester ±-12 (R1=CH2OCOCH3) was prepared as a neutral prodrug of ±-2.

Assay [6] deals with SK-MEL-5 melanoma cells. Kind of assay: Cell proliferation, cell titer blue assay, SK-MEL-5. It is filed as cell-based.
Source text: as §2

Assay [7] has as its system Mcl-1. Nature of the assay: Fluorescence polarization competition assay (FPCA), Mcl-1 / FITC-Bak BH3 peptide. The settings on record: for Exp. ΔG diff.: between Mcl-1 and Bcl-xL, positive favors Mcl-1; for Selectivity, Ki (Bcl-xL) divided by Ki (Mcl-1): Mcl-1 over Bcl-xL. It is filed as binding, human. The method in brief:
as §1

Where [8] appears, read: FPCA with FITC-Bak, Ki from IC50 by Nikolovska-Coleska equation.
Where [9] appears, read: read-out: HL-60 IC50 0.5% FBS, 0.5% FBS.
Where [10] appears, read: read-out: HL-60 IC50 10% FBS, 10% FBS.
Setting [11] is: CellTiter-Blue assay, read-out: GI50, viability of A375 cells.
Setting [12] is: read-out: IC50 inhibition of cell proliferation, SK-MEL-5.

Several values for one entry are separate records, joined by “and”; a condition that tells them apart may be missing. Identical values can stand only once. Like-named read-outs stand apart in the source and are kept apart here.

The term Ki denotes the dissociation constant of the complex between target and ligand, obtained from inhibition or displacement. A word on the GI50: it is the concentration that inhibits growth by half.

Chain of Bcl-xL (Q07817 whole entry): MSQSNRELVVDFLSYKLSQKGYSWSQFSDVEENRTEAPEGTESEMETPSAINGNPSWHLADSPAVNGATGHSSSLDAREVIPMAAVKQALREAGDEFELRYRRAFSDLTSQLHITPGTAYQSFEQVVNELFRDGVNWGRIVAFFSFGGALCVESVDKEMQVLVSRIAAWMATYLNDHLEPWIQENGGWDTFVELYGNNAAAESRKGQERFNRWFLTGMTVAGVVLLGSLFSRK
T1 sequence (Q07820 172-327): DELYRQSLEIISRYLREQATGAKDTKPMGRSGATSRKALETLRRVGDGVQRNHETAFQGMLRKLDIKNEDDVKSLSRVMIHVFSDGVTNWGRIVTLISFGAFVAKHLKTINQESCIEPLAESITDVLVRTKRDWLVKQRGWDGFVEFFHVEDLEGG

As for `COC(=O)c1ccc(N(CC(C)C)S(=O)(=O)c2ccc(Oc3ccccc3)cc2)cc1O` [LC-4-131 20], the Ki in assay [1] (setting [8]) was above 500 µM. Further, the IC50 in assay [2] (setting [9]) was 68.1 µM; in assay [2] (setting [10]) it was 76.4 µM.

Turning to `Cc1cc(Oc2ccc(S(=O)(=O)N(CC(C)C)c3ccc(C(=O)O)c(O)c3)cc2)cc(C)c1Cl` [4jc117-5 13ak], the results for the Ki in assay [1] (setting [8]), in assay [1] (FPCA) and in assay [4] were 0.778 ± 0.05 µM, 0.778 µM and 1.63 ± 0.177 µM, respectively. Moreover, in assay [3], the “Mcl-1 backbone 1H-15N chemical shift perturbation on compound binding” value was “R263 and T266 were both perturbed”.

Turning to `Cc1cc(CCCN(Cc2ccccc2)c2ccc(C(=O)O)c(O)c2)cc(C)c1Cl` [LC-5-188 35], the Ki in assay [1] (setting [8]) is 1.45 µM; in assay [4] it was 2.98 ± 0.406 µM. Also, the results for the IC50 in assay [2] (setting [9]) and in assay [2] (setting [10]) were 7.36 µM and 88 µM, respectively.

For the molecule `Cc1cc(Oc2ccc(S(=O)(=O)N(Cc3ccccc3)c3ccc(C(=O)NS(=O)(=O)c4ccc(NCC5CCOCC5)c([N+](=O)[O-])c4)c(O)c3)cc2)cc(C)c1Cl` [LC-5-131 31], the Ki turned out to be 0.8 ± 0.07 µM in assay [1] (setting [8]), 0.8 µM in assay [1] (FPCA) and 1.61 ± 0.176 µM in assay [4]. Besides, the results for the IC50 in assay [2] (setting [9]) and in assay [2] (setting [10]) were 9.96 µM and above 120 µM, respectively.

For the molecule `CC(=O)OCOC(=O)C1Cc2ccccc2N(S(=O)(=O)c2ccc(Oc3cc(C)c(Cl)c(C)c3)cc2)C1` (racemic) [±-12], the Ki in assay [1] (FPC assay) and in assay [1] (setting [8]) was above 500 µM throughout. In addition, in assay [5] (setting [11]), the GI50 amounted to 73 µM.

Take `Cc1cc(Oc2ccc(S(=O)(=O)N3CC(C(=O)O)Cc4ccccc43)cc2)cc(C)c1Cl` (racemic) [±-2]: the figures for the Ki in assay [1] (setting [8]) and in assay [1] (FPCA) were 0.12 ± 0.053 µM and 0.12 µM, respectively. Besides, the “Mcl-1 backbone 1H-15N chemical shift perturbation on compound binding” value in assay [3] was “significant chemical shift changes”. The GI50 in assay [5] (setting [11]) is 50 µM; in assay [5] (read-out: GI50, viability of A375 melanoma cells), 50 µM.

`Cc1cc(Oc2ccc(S(=O)(=O)N(CC(C)C)c3ccc(O)c(C(=O)O)c3)cc2)cc(C)c1Cl` [JY-5-304 18bd]: the Ki was determined as 0.586 ± 0.041 µM in assay [1] (setting [8]), 0.586 µM in assay [1] (FPCA) and 2.91 ± 0.191 µM in assay [4]. Also, the IC50 in assay [2] (setting [9]) was 9.82 µM; in assay [2] (setting [10]) it was above 120 µM.

In the case of `CC(C)CN(c1ccc(C(=O)O)c(O)c1)S(=O)(=O)c1ccc(Oc2ccccc2)cc1` [LC-4-099 13ag], the Ki in assay [1] (setting [8]) is 5.77 µM and 5.8 µM; in assay [4] it was 18 ± 4.6 µM. Moreover, the IC50 in assay [2] (setting [9]) was 18.5 µM; in assay [2] (setting [10]), above 120 µM.

As to `Cc1cc(Oc2ccc(S(=O)(=O)N(Cc3ccccc3)c3ccc(C(=O)O)c(O)c3)cc2)cc(C)c1Cl` [LC-4-118 13cc], the Ki is 0.659 µM and 0.629 µM in assay [1] (setting [8]); 1.67 ± 0.351 µM in assay [4]. Moreover, the IC50 in assay [2] (setting [9]) was below 7.5 µM; in assay [2] (setting [10]) it was 53.2 µM.

Consider `Cc1cc(Oc2ccc(N(Cc3ccccc3)S(=O)(=O)c3cc(C(=O)O)c(O)c4ccccc34)cc2)cc(C)c1Cl` [Compound 3bl, 4-(N-Benzyl-N-(4-(4-chloro-3,5-dimethylphenoxy)phenyl)sulfamoyl)-1-hydroxy-2-naphthoic Acid], for which the inhibition constant (Ki) in assay [1] (FPCA) amounted to 0.031 µM; in assay [4], 0.34 ± 0.13 µM. Further, the IC50 in assay [6] (Homo sapiens, SK-MEL-5, read-out: IC50 inhibition of cell proliferation, SK-MEL-5) came to 90 µM; in assay [5] (Homo sapiens, A-375) it was 50 µM.

For the molecule `O=C(O)c1cc(S(=O)(=O)Nc2ccc(Oc3cccc4ccccc34)cc2)c2ccccc2c1O` [3bd; SF-5-300], the “Exp. ΔG diff.” value in assay [7] amounted to 2.43 kJ/mol. For the same molecule, the “Mcl-1 Exp ΔG” value in assay [1] is -40.4 kJ/mol. In assay [4], the “Bcl-xL Exp ΔG” value is -38 kJ/mol.

For the molecule `CC(=O)OCOC(=O)c1cc(S(=O)(=O)N(CC(C)C)c2ccc(OC(C)C)cc2)c2ccccc2c1O` [Compound 14], the “Binding affinity to Mcl-1 in vitro” value in assay [1] (FPCA) is reported as “no binding affinity”. Besides, the IC50 in assay [6] (setting [12]) and in assay [5] was 15 µM throughout.

Regarding `O=C(O)c1cc(S(=O)(=O)Nc2ccc(Br)cc2)c2ccccc2c1O` [1; 3a], in assay [7], the “Exp. ΔG diff.” value was determined as 7.24 kJ/mol. For the same molecule, the “Mcl-1 Exp ΔG” value in assay [1] is -31.7 kJ/mol. Moreover, in assay [4], the “Bcl-xL Exp ΔG” value was -24.5 kJ/mol.

In the case of `CC(C)CN(c1ccc(OC(C)C)cc1)S(=O)(=O)c1cc(C(=O)O)c(O)c2ccccc12` [Compound 3ba, 1-Hydroxy-4-(N-isobutyl-N-(4-isopropoxyphenyl)sulfamoyl)-2-naphthoic Acid], the Ki in assay [1] (setting [8]) was 0.487 µM; in assay [4], 6.08 ± 0.81 µM. For the same molecule, in assay [3], the “Mcl-1 backbone 1H-15N chemical shift perturbation on compound binding” value is given as “perturbation of the chemical shifts”. Moreover, the IC50 in assay [5] (Homo sapiens, A-375) was found to be 150 µM.

For `COc1ccc(NS(=O)(=O)c2cc(C(=O)O)c(O)c3ccccc23)cc1` [Compound 3z, 1-Hydroxy-4-(N-(4-methoxyphenyl)sulfamoyl)-2-naphthoic Acid], the “Selectivity, Ki (Bcl-xL) divided by Ki (Mcl-1)” value (shortened to “Selectivity, Ki (Bcl-xL) divided”) in assay [7] turned out to be 6. Besides, the results for the Ki in assay [1] (setting [8]) and in assay [4] were 11.9 ± 2.5 µM and 71.9 ± 21 µM, respectively.

On to `O=C(O)c1cc(S(=O)(=O)NCC2CCCCC2)c2ccccc2c1O` [Compound 3g, 4-(N-(Cyclohexylmethyl)sulfamoyl)-1-hydroxy-2-naphthoic Acid], for which the “Selectivity, Ki (Bcl-xL) divided” value in assay [7] was determined as 11. Moreover, the Ki came out at 7.31 ± 1.42 µM in assay [1] (setting [8]) and 77.6 ± 14.3 µM in assay [4].

Take `COC(=O)c1cc(S(=O)(=O)N(CC(C)C)c2ccc(OC(C)C)cc2)c2ccccc2c1O` [Compound 13]: the “Binding affinity to Mcl-1 in vitro” value in assay [1] (FPCA) is given as “no binding affinity”. For the same molecule, the IC50 in assay [6] (setting [12]) and in assay [5] was around 300 µM in each case.

Consider `Cc1cc(C)cc(Oc2ccc(NS(=O)(=O)c3cc(C(=O)O)c(O)c4ccccc34)cc2)c1` [3bf; SF-5-306], for which the “Exp. ΔG diff.” value in assay [7] was 0.795 kJ/mol. Also, in assay [1], the “Mcl-1 Exp ΔG” value is -37.4 kJ/mol. The “Bcl-xL Exp ΔG” value in assay [4] is -36.6 kJ/mol.

With `Cc1cc(Oc2ccc(N(C3CCCC3)S(=O)(=O)c3cc(C(=O)O)c(O)c4ccccc34)cc2)cc(C)c1Cl` [Compound 3bk, 4-(N-(4-(4-Chloro-3,5-dimethylphenoxy)phenyl)-N-cyclopentylsulfamoyl)-1-hydroxy-2-naphthoic Acid], the “Selectivity, Ki (Bcl-xL) divided” value in assay [7] is given as 8.8. In addition, the results for the Ki in assay [1] (FPCA) and in assay [4] were 0.033 µM and 0.29 ± 0.05 µM, respectively.

With `O=C(O)c1cc(S(=O)(=O)NCc2ccc(Cl)cc2)c2ccccc2c1O` [3f; SF-5-264], in assay [7], the “Exp. ΔG diff.” value is 6.9 kJ/mol. The “Mcl-1 Exp ΔG” value in assay [1] is -26.7 kJ/mol. The “Bcl-xL Exp ΔG” value in assay [4] is -19.8 kJ/mol.

As to `CC(=O)OCOC(=O)c1ccc(N(CC(C)C)S(=O)(=O)c2ccc(Oc3ccccc3)cc2)cc1O` [LC-4-141 21], the IC50 in assay [2] (setting [9]) was 46.4 µM; in assay [2] (setting [10]), above 120 µM.

For the origin of these results see patent US10858316B2, “Small molecule inhibitors of the MCL-1 oncoprotein and uses thereof” (University of Maryland, Baltimore, priority 2015, dated 2020).
